{"source": "patent US5814646A", "about": "“Inhibitors of amyloid beta-protein production” (Eli Lilly and Company, priority 1995, dated 1998)", "data": [{"tested_on": "Aβ production in 293 751 SWE and CHO 751 SWE cells (transfected with APP-751 Swedish mutation)", "experiment": "Aβ production inhibition activity in cells (Aβ ELISA of conditioned media, normalized for cytotoxicity by MTT)", "format": "cell-based", "details": "5 μg/ml", "protocol": "(§1) Two cell lines (human kidney cell line 293 and Chinese hamster ovary cell line CHO) were stably transfected with the gene for APP-751 containing the double mutation Lys651 -Met652 to Asn651 -Leu652 (APP-751 numbering) commonly called the Swedish mutation using the method described in Citron et al., (1992) Nature 360:672-674. The transfected cell lines were designated as 293 751 SWE and CHO 751 SWE, and were plated in Corning 96 well plates at 2.5×10^4 or 1×10^4 cells per well respectively in Dulbecco's minimal essential media plus 10% fetal bovine serum. Following overnight incubation at 37° C. in an incubator equilibrated with 10% carbon dioxide (CO2), the media were removed and replaced with 200 μL per well of media containing a test compound. After a two hour pretreatment period, the media were again removed and replaced with fresh media containing the test compound and the cells were incubated for an additional two hours.\n(§2) Test compound stocks were prepared in DMSO such that at the final concentration used in the treatment, the concentration of DMSO did no exceed 0.5%. After treatment, plates were centrifuged in a Beckman GPR at 1200 rpm for five minutes at room temperature to pellet cellular debris from the conditioned media. From each well, 100 μL of conditioned media were transferred into an ELISA plate precoated with antibody 266 against βAP-13-28 (Seubert et al., supra.) and stored at 4° C. overnight. An ELISA assay employing labeled antibody 6C6 (against βAP-1-16) was run the next day to measure the amount of Aβ produced.\n(§3) Cytotoxic effects of the test compounds were measured by a modification of the method of Hansen et al., (1989) J. Immun. Meth. 119:203-210. To the cells remaining in the tissue culture plate, was added 25 μL of a 3, (4,5-dimethylthiazol-2-yl)2,5-diphenyltetrazolium bromide (MTT) stock solution (5 mg/mL) to a final concentration of […]. Cells were incubated at 37° C. for one hour, and cellular activity was stopped by the addition of an equal volume of MTT lysis buffer (20% w/v sodium dodecylsulfate in 50% DMF, pH 4.7). Complete extraction was achieved by overnight shaking at room temperature. The difference in the OD562 nm and the OD650 nm was measured in a Molecular Devices UVmax microplate reader as an indicator of the cellular viability.\n(§4) The results of the Aβ ELISA were fit to a standard curve and expressed as ng/mL Aβ peptide. In order to normalize for cytotoxicity, these Aβ results were divided by the MTT results and expressed as a percentage of the results from a drug -free control.\n(§5) The test compounds were assayed for Aβ production inhibition activity in cells at […] using the test. The results presented in Table 1 are the mean and standard deviation of at least six replicate assays. IC50 means the concentration of test compound in micromoles/liter required to inhibit Aβ production by 50%.", "units": {"inhibition at 5 µg/mL": "%"}, "values": [{"smiles": "CC(c1cccc(NC(=O)c2ccc(C(C)(C)C)cc2)c1)N(O)C(=S)NCc1ccccc1", "note": "(stereo not drawn) [Compound 99]", "inhibition at 5 µg/mL": 43}, {"smiles": "Cc1cccc(CNC(=S)N(O)C(C)c2cccc(NC(=O)c3ccc(C(C)(C)C)cc3)c2)c1", "note": "(stereo not drawn) [Compound 100]", "inhibition at 5 µg/mL": 1}]}, {"tested_on": "Aβ production in 293 751 SWE and CHO 751 SWE cells (transfected with APP-751 Swedish mutation)", "experiment": "Aβ production inhibition activity in cells (Aβ ELISA of conditioned media, normalized for cytotoxicity by MTT)", "format": "cell-based", "details": "10 μg/ml, % of drug-free control, normalized to MTT", "protocol": "as §1, §2, §3, §4, §5", "units": {"inhibition at 10 µg/mL": "%"}, "values": [{"smiles": "COc1ccccc1CNC(=S)Nc1ccc(Oc2ccc(C(C)(C)C)cc2)cc1", "note": "[Compound 109]", "inhibition at 10 µg/mL": 37}, {"smiles": "CC(C)(C)c1ccc(Oc2ccc(NC(=S)NCc3cccnc3)cc2)cc1", "note": "[Compound 121]", "inhibition at 10 µg/mL": 37}, {"smiles": "CC(C)(C)OC(=O)N1CCCCC1CNC(=S)Nc1ccc(Oc2ccc(C(C)(C)C)cc2)cc1", "note": "(stereo not drawn) [Compound 124]", "inhibition at 10 µg/mL": 31}, {"smiles": "O=C(Nc1ccc(Cl)c(Cl)c1)Nc1ncccn1", "note": "[Compound 138]", "inhibition at 10 µg/mL": 7}, {"smiles": "COC(=O)c1ccccc1NC(=O)Nc1ccc(Cl)c(Cl)c1", "note": "[Compound 142]", "inhibition at 10 µg/mL": 22}, {"smiles": "COc1ccc(NC(=O)Nc2ccc(Cl)c(Cl)c2)c(OC)c1", "note": "[Compound 144]", "inhibition at 10 µg/mL": 41}, {"smiles": "CSc1ccc(NC(=O)Nc2ccc(Cl)cc2)cc1", "note": "[Compound 156]", "inhibition at 10 µg/mL": 13}, {"smiles": "CSc1ccc(NC(=O)Nc2ccccc2Cl)cc1", "note": "[Compound 157]", "inhibition at 10 µg/mL": 41}]}, {"tested_on": "Aβ production in 293 751 SWE and CHO 751 SWE cells (transfected with APP-751 Swedish mutation)", "experiment": "Aβ production inhibition activity in cells (Aβ ELISA of conditioned media, normalized for cytotoxicity by MTT)", "format": "cell-based", "details": "2 h pretreatment + 2 h incubation", "protocol": "as §1, §2, §3, §4, §5", "units": {"IC50": "µM"}, "values": [{"smiles": "CC(C)(C)c1ccc(SCc2ccc(CN(O)C(=S)NCc3ccccc3)cc2)cc1", "note": "[Compound 94]", "IC50": 13.1}, {"smiles": "CC(C)(C)c1ccc(SCc2ccc(CN(O)C(=S)Nc3ccc(Cl)c(C(F)(F)F)c3)cc2)cc1", "note": "[Compound 95]", "IC50": 4.6}, {"smiles": "CCCCCCNC(=S)N(O)Cc1ccc(COc2ccc(C(C)(C)CC)cc2)cc1", "note": "[Compound 96]", "IC50": 24.8}, {"smiles": "CCC(C)(C)c1ccc(OCc2ccc(CN(O)C(=S)NCc3ccccc3)cc2)cc1", "note": "[Compound 97]", "IC50": 10}, {"smiles": "CCCCCCNC(=S)N(O)C(C)c1cccc(NC(=O)c2ccc(C(C)(C)C)cc2)c1", "note": "(stereo not drawn) [Compound 98]", "IC50": 13}, {"smiles": "CCCc1cc(C(C)(C)C)ccc1Oc1cccc(CN(O)C(=S)NCc2ccccc2)c1", "note": "[Compound 101]", "IC50": 4.5}, {"smiles": "CCCCCCNC(=S)N(O)Cc1cccc(Oc2ccc(C(C)(C)C)cc2CCC)c1", "note": "[Compound 102]", "IC50": 6.1}, {"smiles": "CCCc1cc(C(C)(C)C)ccc1Oc1cccc(CN(O)C(=O)Nc2ccc(Cl)c(C(F)(F)F)c2)c1", "note": "[Compound 103]", "IC50": 20}, {"smiles": "CC(C)(C)c1ccc(Oc2ccc(NC(=S)NCc3ccccc3Cl)cc2)cc1", "note": "[Compound 104]", "IC50": 13.4}, {"smiles": "CC(C)(C)c1ccc(Oc2ccc(NC(=S)NCc3cccc(Cl)c3)cc2)cc1", "note": "[Compound 105]", "IC50": 9.4}, {"smiles": "CC(C)(C)c1ccc(Oc2ccc(NC(=S)NCc3ccc(Cl)cc3)cc2)cc1", "note": "[Compound 106]", "IC50": 9.2}, {"smiles": "CC(C)(C)c1ccc(Oc2ccc(NC(=S)NCc3cccc(Br)c3)cc2)cc1", "note": "[Compound 107]", "IC50": 7.2}, {"smiles": "CC(C)(C)c1ccc(Oc2ccc(NC(=S)NCc3ccc(Br)cc3)cc2)cc1", "note": "[Compound 108]", "IC50": 8.9}, {"smiles": "COc1cccc(CNC(=S)Nc2ccc(Oc3ccc(C(C)(C)C)cc3)cc2)c1", "note": "[Compound 110]", "IC50": 21.2}, {"smiles": "COc1ccc(CNC(=S)Nc2ccc(Oc3ccc(C(C)(C)C)cc3)cc2)cc1", "note": "[Compound 111]", "IC50": 8.3}, {"smiles": "CC(C)(C)c1ccc(Oc2ccc(NC(=S)NCc3cccc(F)c3)cc2)cc1", "note": "[Compound 112]", "IC50": 7.6}, {"smiles": "CC(C)(C)c1ccc(Oc2ccc(NC(=S)NCc3ccc(F)cc3)cc2)cc1", "note": "[Compound 113]", "IC50": 5.6}, {"smiles": "CC(C)(C)c1ccc(Oc2ccc(NC(=S)Nc3ccccc3)cc2)cc1", "note": "[Compound 114]", "IC50": 18.2}, {"smiles": "CC(C)(C)c1ccc(Oc2ccc(NC(=S)NCc3ccccc3)cc2)cc1", "note": "[Compound 115]", "IC50": 16.4}, {"smiles": "CC(C)(C)c1ccc(Oc2ccc(NC(=S)NCCc3ccccc3)cc2)cc1", "note": "[Compound 116]", "IC50": 19.8}, {"smiles": "CC(C)(C)c1ccc(Oc2ccc(NC(=S)NCCCc3ccccc3)cc2)cc1", "note": "[Compound 117]", "IC50": 17}, {"smiles": "CC(C)(C)c1ccc(Oc2ccc(NC(=S)NCCCCc3ccccc3)cc2)cc1", "note": "[Compound 118]", "IC50": 16.4}, {"smiles": "CC(C)(C)c1ccc(Oc2ccc(NC(=S)NC3CCCCC3)cc2)cc1", "note": "[Compound 119]", "IC50": 15.2}, {"smiles": "CC(C)(C)c1ccc(Oc2ccc(NC(=S)NCc3ccccn3)cc2)cc1", "note": "[Compound 120]", "IC50": 15.6}, {"smiles": "CC(C)(C)c1ccc(Oc2ccc(NC(=S)NCc3ccncc3)cc2)cc1", "note": "[Compound 122]", "IC50": 23.5}, {"smiles": "CC(C)(C)c1ccc(Oc2ccc(NC(=S)NCCc3ccccn3)cc2)cc1", "note": "[Compound 123]", "IC50": 12.3}, {"smiles": "CC(C)(C)OC(=O)N1CCCC(CNC(=S)Nc2ccc(Oc3ccc(C(C)(C)C)cc3)cc2)C1", "note": "(stereo not drawn) [Compound 125]", "IC50": 9.3}, {"smiles": "CC(C)(C)c1ccc(Oc2ccc(NC(=S)NCC3CCCCN3)cc2)cc1", "note": "(stereo not drawn) [Compound 126]", "IC50": 7}, {"smiles": "CC(C)(C)c1ccc(Oc2ccc(NC(=S)NCC3CCCNC3)cc2)cc1", "note": "(stereo not drawn) [Compound 127]", "IC50": 11.7}, {"smiles": "CC(C)(C)c1ccc(Oc2ccc(NC(=S)NCc3ccc(F)cc3F)cc2)cc1", "note": "[Compound 128]", "IC50": 7.3}, {"smiles": "CC(C)(C)c1ccc(Oc2ccc(NC(=S)NCc3ccc(F)c(F)c3)cc2)cc1", "note": "[Compound 129]", "IC50": 4.5}, {"smiles": "CC(C)(C)c1ccc(Oc2ccc(NC(=S)NCc3ccc(F)cc3Cl)cc2)cc1", "note": "[Compound 130]", "IC50": 7.2}, {"smiles": "CC(C)(C)c1ccc(Oc2ccc(NC(=S)NCc3ccc(F)c(Cl)c3)cc2)cc1", "note": "[Compound 131]", "IC50": 5}, {"smiles": "CC(C)(C)c1ccc(Oc2ccc(NC(=S)NCc3ccc(F)cc3C(F)(F)F)cc2)cc1", "note": "[Compound 132]", "IC50": 8}, {"smiles": "CC(C)(C)c1ccc(Oc2ccc(NC(=S)NCc3ccc(Cl)c(Cl)c3)cc2)cc1", "note": "[Compound 133]", "IC50": 6.5}, {"smiles": "CC(C)(C)c1ccc(Oc2ccc(NC(=S)NCc3nnc(C(F)(F)F)s3)cc2)cc1", "note": "[Compound 134]", "IC50": 10.2}, {"smiles": "CCCCCCNC(=S)Nc1ccc(Oc2ccc(C(C)(C)C)cc2)cc1", "note": "[Compound 135]", "IC50": 10.6}, {"smiles": "O=C(Nc1ccc(Cl)c(Cl)c1)Nc1cccc2ncccc12", "note": "[Compound 136]", "IC50": 17.8}, {"smiles": "O=C(Nc1ccc(Cl)c(Cl)c1)Nc1nc2ccccc2s1", "note": "[Compound 137]", "IC50": 10.3}, {"smiles": "S=C(Nc1ccc(Cl)cc1)Nc1ccc(Cl)c(Cl)c1", "note": "[Compound 139]", "IC50": 6.6}, {"smiles": "O=C(Nc1ccc(Cl)c(Cl)c1)Nc1nc2ccccc2[nH]1", "note": "[Compound 140]", "IC50": 17.4}, {"smiles": "Cc1cc2nc(NC(=O)Nc3ccc(Cl)c(Cl)c3)[nH]c2cc1C", "note": "[Compound 143]", "IC50": 14.9}, {"smiles": "O=C(Nc1ccc(Sc2ccc(Cl)c(Cl)c2)cc1)Nc1ccc(Cl)c(Cl)c1", "note": "[Compound 145]", "IC50": 6.2}, {"smiles": "S=C(NCc1ccccc1)Nc1ccc(Cl)c(Cl)c1", "note": "[Compound 146]", "IC50": 21.8}, {"smiles": "FC(F)(F)c1cccc(NC(=S)Nc2ccc(Cl)c(Cl)c2)c1", "note": "[Compound 147]", "IC50": 4.7}, {"smiles": "S=C(Nc1ccc(Oc2ccccc2)cc1)Nc1ccc(Cl)c(Cl)c1", "note": "[Compound 148]", "IC50": 7.5}, {"smiles": "CSc1ccc(NC(=O)Nc2ccc(Cl)c(Cl)c2)cc1", "note": "[Compound 149]", "IC50": 13.8}, {"smiles": "CSc1ccc(NC(=O)Nc2ccc(Cl)c(Cl)c2)cc1Br", "note": "[Compound 150]", "IC50": 5.2}, {"smiles": "O=C(Nc1ccc(Cl)c(Cl)c1)Nc1ccccc1Cl", "note": "[Compound 151]", "IC50": 10.1}, {"smiles": "O=C(Nc1ccccc1)Nc1ccc(Cl)c(Cl)c1", "note": "[Compound 152]", "IC50": 11.4}, {"smiles": "S=C(Nc1ccc(Cl)c(Cl)c1)Nc1ccc(Cl)c(Cl)c1", "note": "[Compound 153]", "IC50": 1.7}, {"smiles": "CSc1ccc(NC(=O)Nc2ccc(Cl)c(Cl)c2)cc1", "note": "[Compound 154]", "IC50": 8.6}, {"smiles": "CSc1ccc(NC(=O)Nc2cc(Cl)c(Cl)c(Cl)c2)cc1", "note": "[Compound 155]", "IC50": 5.8}]}]}
